Laboratory results published in patent US9504685B2, “Method for treating a pulmonary hypertension condition” (Gilead Sciences, Inc., priority 2006, dated 2016).

Test system: subjects with PAH
Assay: Example 2 (ARIES-1) placebo-controlled Phase III trial, efficacy
Type: in vivo, human
Settings: for Clinical worsening event: Atrial septostomy / Clinical worsening event: Death / Clinical worsening event: Escape criteria / Clinical worsening event: Hospitalization for PAH / Clinical worsening event: Lung transplantation / Clinical worsening event: Study discontinuation due to addition of PAH treatment / Clinical worsening: Total subjects with ≧1 event / subjects hospitalized for worsening right heart failure / subjects who had an event of clinical worsening: 12 weeks; for Change in 6MWD from baseline to Week 12, mean: ITT population; for geometric mean percent change in plasma BNP, decrease from baseline / geometric mean percent change in plasma ET-1, increase from baseline: Week 12
Experimental: The primary objective of this study was to determine the effect of ambrisentan on exercise capacity in subjects with pulmonary arterial hypertension (PAH). The secondary objectives of this study were to evaluate effects of ambrisentan on other clinical measures of PAH, as well as safety and tolerability of the study drug.
Study drug was provided in round, biconvex, oral tablets that were identical in appearance. Three strengths of active study drug containing 2.5 mg, 5 mg or 10 mg of ambrisentan were used in this study. All study drug was packaged in blister cards. Subjects were instructed to take study drug once daily (q.d.) by mouth (p.o.) in the morning, with or without food.
The maximum study duration was up to 14 weeks from the time of initial screening procedures to the final study visit (Week 12). Screening procedures were performed a maximum of 2 weeks prior to the first dose of study drug. The maximum duration of study drug treatment was 12 weeks.
Men and women, 18 years of age or older, with idiopathic PAH, PAH associated with CTD, e.g., mixed CTD, CREST syndrome, systemic sclerosis (scleroderma), overlap syndrome or systemic lupus erythematosus, or PAH associated with anorexigen use or HIV infection were enrolled in this study. Subjects were to have a documented mean PAP≧25 mmHg, PVR>3 mmHgL/min, and PCWP or LVEDP<15 mmHg. Subjects must have been able to walk a distance of at least 150 m but no more than 450 m during 2 consecutive 6MWTs to be eligible for inclusion in the study.
After a 2 week screening period, eligible subjects were stratified based on the underlying etiology of PAH (idiopathic or non-idiopathic) and were randomized to 1 of 3 treatment groups (placebo, 5 mg or 10 mg ambrisentan) in a ratio of 1:1:1. One blinded dose reduction was permitted during the 12-week treatment period in the event of study drug intolerance (e.g., 10 mg to 5 mg, 5 mg to 2.5 mg, placebo to placebo). Subjects received a daily dose of 2.5 mg ambrisentan only if they reduced from the 5 mg dose group. Subjects were assessed for efficacy and safety at monthly intervals.
Therefore, after a minimum treatment period of 4 weeks, subjects who met 2 or more of the following predefined early escape criteria may have been removed from the study: • (a) a decrease from baseline of at least 20% in 6MWD; • (b) an increase of 1 or more WHO functional class; • (c) worsening right ventricular failure (e.g., as indicated by increased jugular venous pressure, new or worsening hepatomegaly, ascites or peripheral edema); • (d) rapidly progressing cardiogenic, hepatic or renal failure; and/or • (e) refractory systolic hypotension (systolic blood pressure <85 mmHg).
The primary efficacy endpoint was change from baseline in 6MWD evaluated after 12 weeks of treatment compared to placebo.
The secondary efficacy endpoints included: • (a) time to clinical worsening of PAH, as defined by the time from randomization to the first occurrence of death, lung transplantation, hospitalization for PAH, atrial septostomy, study discontinuation due to addition of other PAH therapeutic agents, or study discontinuation due to 2 or more early escape criteria; • (b) change from baseline measured after 12 weeks of treatment compared to placebo in: • (i) WHO functional class; • (ii) SF-36® health survey physical functioning scale; • (iii) BDI immediately following exercise; and/or • (iv) an assessment of the safety and tolerability of the study drug; and • (c) change from baseline measured after 12 weeks of treatment compared to placebo in plasma levels of ET-1, BNP and cTnT. Safety Assessments
For the ITT population, subjects were considered as belonging to their randomized treatment group, regardless of the actual treatment received.
The primary efficacy endpoint was the change from baseline in 6MWD evaluated after 12 weeks of treatment compared to placebo, where the last observation was carried forward. […]

[1] = 5 mg once daily, baseline to Week 12
[2] = 10 mg once daily, baseline to Week 12

COC(c1ccccc1)(c1ccccc1)[C@H](Oc1nc(C)cc(C)n1)C(=O)O [ambrisentan]
placebo-adjusted improvement in mean 6MWD at Week 12 (5 mg once daily): +30.6 m | subjects at least maintaining their baseline WHO functional class at Week 12 (5 mg once daily): 98.5% | Clinical worsening event: Atrial septostomy (5 mg once daily): 0 (0.0) subjects (% of ITT population) | Clinical worsening event: Death (5 mg once daily): 1 (1.5) subjects (% of ITT population) | Clinical worsening event: Escape criteria (5 mg once daily): 0 (0.0) subjects (% of ITT population) | Clinical worsening event: Hospitalization for PAH (5 mg once daily): 2 (3.0) subjects (% of ITT population) | Clinical worsening event: Lung transplantation (5 mg once daily): 0 (0.0) subjects (% of ITT population) | Clinical worsening event: Study discontinuation due to addition of PAH treatment (5 mg once daily): 0 (0.0) subjects (% of ITT population) | Clinical worsening: Total subjects with ≧1 event (5 mg once daily): 3 (4.5) subjects (% of ITT population) | subjects hospitalized for worsening right heart failure (5 mg once daily): 1 subjects | subjects who had an event of clinical worsening (5 mg once daily): 3 subjects | Change in 6MWD from baseline to Week 12, mean (5 mg once daily): +22.8 meters | geometric mean percent change in plasma BNP, decrease from baseline (5 mg once daily): 30% | geometric mean percent change in plasma ET-1, increase from baseline (5 mg once daily): 96% | Change in SF-36 Bodily pain, mean (SD) [1]: −1.43 ± 13.21 | Change in SF-36 General health, mean (SD) [1]: +0.08 ± 8.45 | Change in SF-36 Mental component summary, mean (SD) [1]: +0.50 ± 10.50 | Change in SF-36 Mental health, mean (SD) [1]: +0.81 ± 9.67 | Change in SF-36 Physical component summary, mean (SD) [1]: +1.88 ± 8.68 | Change in SF-36 Physical functioning, mean (SD) [1]: +3.86 ± 7.14 | Change in SF-36 Role-emotional, mean (SD) [1]: +1.41 ± 13.95 | Change in SF-36 Role-physical, mean (SD) [1]: +4.22 ± 10.52 | Change in SF-36 Social functioning, mean (SD) [1]: +1.11 ± 13.63 | Change in SF-36 Vitality, mean (SD) [1]: +2.38 ± 10.06 | Change in WHO functional class: +1 class [1]: 1 (1.5) subjects (% of ITT population) | Change in WHO functional class: +2 classes [1]: 0 (0.0) subjects (% of ITT population) | Change in WHO functional class: no change [1]: 47 (70.1) subjects (% of ITT population) | Change in WHO functional class: −1 class [1]: 18 (26.9) subjects (% of ITT population) | Change in WHO functional class: −2 classes [1]: 1 (1.5) subjects (% of ITT population) | placebo-adjusted improvement in mean 6MWD at Week 12 (10 mg once daily): +51.4 m | subjects at least maintaining their baseline WHO functional class at Week 12 (10 mg once daily): 95.5% | Clinical worsening event: Atrial septostomy (10 mg once daily): 0 (0.0) subjects (% of ITT population) | Clinical worsening event: Death (10 mg once daily): 1 (1.5) subjects (% of ITT population) | Clinical worsening event: Escape criteria (10 mg once daily): 2 (3.0) subjects (% of ITT population) | Clinical worsening event: Hospitalization for PAH (10 mg once daily): 2 (3.0) subjects (% of ITT population) | Clinical worsening event: Lung transplantation (10 mg once daily): 0 (0.0) subjects (% of ITT population) | Clinical worsening event: Study discontinuation due to addition of PAH treatment (10 mg once daily): 1 (1.5) subjects (% of ITT population) | Clinical worsening: Total subjects with ≧1 event (10 mg once daily): 3 (4.5) subjects (% of ITT population) | subjects hospitalized for worsening right heart failure (10 mg once daily): 1 subjects | subjects who had an event of clinical worsening (10 mg once daily): 3 subjects | Change in 6MWD from baseline to Week 12, mean (10 mg once daily): +43.6 meters | geometric mean percent change in plasma BNP, decrease from baseline (10 mg once daily): 45% | geometric mean percent change in plasma ET-1, increase from baseline (10 mg once daily): 48% | Change in SF-36 Bodily pain, mean (SD) [2]: +2.26 ± 12.22 | Change in SF-36 General health, mean (SD) [2]: +3.25 ± 8.81 | Change in SF-36 Mental component summary, mean (SD) [2]: +2.11 ± 13.17 | Change in SF-36 Mental health, mean (SD) [2]: +1.55 ± 12.66 | Change in SF-36 Physical component summary, mean (SD) [2]: +4.79 ± 7.90 | Change in SF-36 Physical functioning, mean (SD) [2]: +4.52 ± 7.16 | Change in SF-36 Role-emotional, mean (SD) [2]: +2.98 ± 17.37 | Change in SF-36 Role-physical, mean (SD) [2]: +6.67 ± 10.35
